Consider 21 compounds from ChEMBL document CHEMBL3046768, “New antiepileptic agents: structureactivity relationships” (Med Chem Res, 2012).

SMILES strings stand for the structures.

Usually TD50 stands for the 50% point of the dose-response relation for the toxic effect studied. A word on the ED50: it is the midpoint of the dose-response relation. One may read the EC50 as the midpoint of the concentration-response curve. One may read the bioavailability as the share of a dose that reaches the circulation, judged against a reference dose that is usually intravenous.

Data set [1] concerns Rattus norvegicus. In words: Protective index, ratio of TD50 for po dosed Rattus norvegicus (rat) to ED50 for anticonvulsant activity in po dosed rat assessed as inhibition of maximal electroshock-induced seizure. It is filed as functional.
A short description of data set [2]: Toxicity in po dosed maximal electroshock-induced seizure Rattus norvegicus (rat) model. It is filed as organism-based. The conditions noted are these: in vivo. In general terms: Protection in the maximal electroshock model is a classic sign of anticonvulsant action.
Data set [3] has as its system Rattus norvegicus. In words: Anticonvulsant activity in po dosed Rattus norvegicus (rat) assessed as inhibition of maximal electroshock-induced seizure after 0.5 hr. It is filed as functional.
Data set [4] relates to Mus musculus. In words: Protective index, ratio of TD50 for ip dosed Mus musculus (mouse) to ED50 for ip dosed Mus musculus (mouse) assessed as inhibition of maximal electroshock-induced seizure. It is filed as functional.
Data set [5] relates to Mus musculus. In words: Anticonvulsant activity in ip dosed Mus musculus (mouse) assessed as inhibition of maximal electroshock-induced seizure after 0.25 hr. It is filed as functional.
For data set [6], the target named is T1, 5-hydroxytryptamine receptor 2C (Homo sapiens, UniProt P28335).
T1 sequence (P28335 whole entry): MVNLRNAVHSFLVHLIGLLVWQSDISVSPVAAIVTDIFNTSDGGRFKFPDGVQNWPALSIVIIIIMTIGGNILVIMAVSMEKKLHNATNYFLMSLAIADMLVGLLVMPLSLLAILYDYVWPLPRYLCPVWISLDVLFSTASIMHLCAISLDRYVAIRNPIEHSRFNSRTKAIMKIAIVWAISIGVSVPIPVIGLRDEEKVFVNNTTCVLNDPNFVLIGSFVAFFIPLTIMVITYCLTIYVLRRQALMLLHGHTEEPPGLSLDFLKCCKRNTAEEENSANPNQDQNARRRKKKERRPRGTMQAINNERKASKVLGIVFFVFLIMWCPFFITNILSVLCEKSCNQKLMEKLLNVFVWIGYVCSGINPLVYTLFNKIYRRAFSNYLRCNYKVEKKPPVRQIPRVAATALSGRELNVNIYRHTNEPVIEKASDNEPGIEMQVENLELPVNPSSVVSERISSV
In words: Agonist activity at Homo sapiens (human) 5-HT2C receptor assessed as calcium mobilization by cell based assay. It counts as functional.

For data set [7], the system named is Mus musculus. In words: Anticonvulsant activity in ip dosed Mus musculus (mouse) assessed as inhibition of maximal electroshock-induced seizure after 1 hr. It is filed as functional.
The test system of data set [8] is Rattus norvegicus. In words: Anticonvulsant activity in po dosed Rattus norvegicus (rat) assessed as inhibition of maximal electroshock-induced seizure after 5 hr. It counts as functional.
Data set [9] deals with Rattus norvegicus. In words: Anticonvulsant activity in po dosed Rattus norvegicus (rat) assessed as inhibition of maximal electroshock-induced seizure after 4 hr. It counts as functional.
Data set [10] has as its system Mus musculus. In words: Anticonvulsant activity in ip dosed Mus musculus (mouse) assessed as inhibition of subcutaneous metrazol-induced seizure. It is filed as functional.
The subject of data set [11] is Mus musculus. In words: Anticonvulsant activity in ip dosed Mus musculus (mouse) assessed as inhibition of maximal electroshock-induced seizure. It is filed as functional. The conditions noted are these: for ED50: Mus musculus, ip.
The nature of data set [12]: Oral bioavailability in Rattus norvegicus (rat). It counts as ADME, organism-based. The note with it: in vivo.
For data set [13], the species on record is Rattus norvegicus. In words: Anticonvulsant activity in Rattus norvegicus (rat) assessed as inhibition of maximal electroshock-induced seizure. It is filed as functional.
The species named for data set [14] is Mus musculus. In words: Anticonvulsant activity in Mus musculus (mouse) assessed as inhibition of maximal electroshock-induced seizure. It is filed as functional.
The subject of data set [15] is Mus musculus. In words: Anticonvulsant activity in ip dosed Mus musculus (mouse) assessed as inhibition of subcutaneous pentylene tetrazole-induced seizure. It is filed as functional.
Data set [16] is described as follows: Toxicity in ip dosed maximal electroshock-induced seizure Mus musculus (mouse) model. It is filed as organism-based. The conditions noted are these: in vivo.
The target of data set [17] is T1, 5-hydroxytryptamine receptor 2C. In words: Agonist activity at Homo sapiens (human) 5-HT2C receptor.
For data set [18], the target named is T2, 5-hydroxytryptamine receptor 2C (Homo sapiens) (UniProt P28335).
T2 sequence (whole entry): T1 sequence (P28335 whole entry)
In words: (§1) Agonist activity at Homo sapiens (human) 5-HT2C receptor assessed as 5-HT-induced calcium mobilization by cell based assay. It is filed as functional.

Data set [19] has as its target 5-hydroxytryptamine receptor 2A (Homo sapiens) (UniProt P28223). In words: Agonist activity at Homo sapiens (human) 5-HT2A receptor assessed as 5-HT-induced phosphoinositide hydrolysis by cell based assay. Also noted: scale not given: the % may be the effect or the level left.
Data set [20] is filed under the species Mus musculus. In words: Protective index, ratio of TD50 for Mus musculus (mouse) to […] for Mus musculus (mouse) assessed as inhibition of maximal electroshock-induced seizure. It counts as functional.
Data set [21] concerns Rattus norvegicus. In words: Anticonvulsant activity in ip dosed Rattus norvegicus (rat) assessed as inhibition of subcutaneous pentylene tetrazole-induced seizure. It counts as functional.
Data set [22] relates to Rattus norvegicus. In words: Anticonvulsant activity in ip dosed Rattus norvegicus (rat) assessed as inhibition of maximal electroshock-induced seizure. It counts as functional.
For data set [23], the system named is Rattus norvegicus. In words: Protective index, ratio of TD50 for ip dosed Rattus norvegicus (rat) to ED50 for ip dosed rat assessed as inhibition of maximal electroshock-induced seizure. It counts as functional.
The subject of data set [24] is Rattus norvegicus. In words: Anticonvulsant activity in po dosed Rattus norvegicus (rat) assessed as inhibition of maximal electroshock-induced seizure after 1 hr. It is filed as functional.
For data set [25], the target named is T1, 5-hydroxytryptamine receptor 2C. The data set is described as §1. It counts as functional.

5-hydroxytryptamine receptor 2A (Homo sapiens), sequence (P28223 whole entry): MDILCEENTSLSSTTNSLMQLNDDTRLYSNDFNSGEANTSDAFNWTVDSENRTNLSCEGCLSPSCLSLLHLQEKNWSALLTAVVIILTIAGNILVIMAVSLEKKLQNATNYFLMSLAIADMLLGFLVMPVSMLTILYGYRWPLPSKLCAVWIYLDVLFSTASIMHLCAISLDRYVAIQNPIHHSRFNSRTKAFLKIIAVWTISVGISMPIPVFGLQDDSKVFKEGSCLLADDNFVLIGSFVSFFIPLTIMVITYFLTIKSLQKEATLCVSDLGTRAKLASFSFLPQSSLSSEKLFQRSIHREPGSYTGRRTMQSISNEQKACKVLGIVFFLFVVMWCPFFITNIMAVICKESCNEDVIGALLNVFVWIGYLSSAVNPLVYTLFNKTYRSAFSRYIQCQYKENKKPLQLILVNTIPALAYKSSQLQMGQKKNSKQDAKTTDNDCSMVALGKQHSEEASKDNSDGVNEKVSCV

As for `CC(=O)NN(C(=O)NCc1ccccc1)c1nccs1`, the “Ratio TD50/ED50” value is given as >40 in the data set on Rattus norvegicus [1] and 5.4 with Mus musculus [4]. In addition, the TD50 in data set [2] was > 250 mg/kg. The ED50 with Rattus norvegicus [3] came to 6.2 mg/kg; in the data set on Mus musculus [5], 22 mg/kg. On to `Cc1c2n(c3c(C)c(Cl)ccc13)C(C)NCC2` (stereo not drawn), for which, in [6], the EC50 worked out at 0.4 nM.

In the case of `CCC1(c2ccccc2)C(=O)NC(=O)NC1=O` [PHENOBARBITAL], the 50% effective dose (ED50) came out at 22 mg/kg in the data set with Mus musculus [7] and 9.1 mg/kg with Rattus norvegicus [8]. As for `O=C1NC(=O)C(c2ccccc2)(c2ccccc2)N1` [PHENYTOIN], in the data set with Rattus norvegicus [9], the ED50 turned out to be 30 mg/kg.

On to `O=C1NCCCCC1(O)c1ccccc1` (stereo not drawn), for which the results for the ED50 in the data set on Mus musculus [10] and in the data set with Mus musculus [11] were 74 mg/kg and 63 mg/kg, respectively. In the case of `C[C@H]1CN(c2ccc(C(F)(F)F)c3ccoc23)CCN1`, in data set [12], the bioavailability worked out at 83%. `CC1(C)C(C(=O)NC(N)=O)C1(C)C` [2,2,3,3-TETRAMETHYLCYCLOPROPANECARBONYLUREA]: the median effective dose (ED50) is 29 mg/kg in the data set filed under Rattus norvegicus [13] and 90 mg/kg in the data set filed under Mus musculus [14]. On to `CCCC(CCC)C(=O)[O-].[Na+]` [VALPROATE SODIUM], for which the “inhibition (INH)” value in the data set on Mus musculus [15] amounted to 80%. Consider `COC(=O)C1C(=O)C=C(Nc2cc(C)on2)CC1C` (stereo not drawn), for which the 50% effective dose (ED50) in the data set on Mus musculus [11] came to 68.9 mg/kg. For the same compound, the “Ratio TD50/ED50” value with Mus musculus [4] was >7.3. In [16], the TD50 was > 500 mg/kg. On to `CCNc1nnc(-c2ccccc2O)s1`, for which the “inhibition (INH)” value in the data set on Mus musculus [11] is 90%. With `Clc1ccc(-c2ccc(-c3cc4c5c(c3)[C@@H]3CNC[C@@H]3N5CCCS4)cc2)c(Cl)c1`, the 50% effective concentration (EC50) in [17] was determined as 3 nM.

For the compound `CCOC(=O)C1C(=O)C=C(Nc2cc(C)on2)CC1C` (stereo not drawn), the “Ratio TD50/ED50” value in the data set with Rattus norvegicus [1] is on record as >49.6. For the same compound, the TD50 in data set [2] was > 500 mg/kg. On to `Cc1noc(C)c1COc1cc(F)c(COC(=O)N2[C@H](C)CNC[C@@H]2C)c(F)c1`, for which the Activity in data set [18] was 91%.

For the compound `CCc1cc2c(ccc3cnn(C[C@H](C)N)c32)o1`, the Activity in data set [19] is 97%. `Oc1ccccc1-c1nnc(Nc2cccc(F)c2)s1`: the “inhibition (INH)” value in the data set on Mus musculus [11] is given as 70%. For the compound `C1CC2CNCCN3C2C(C1)[C@H]1CCC[C@H]13` (stereo partly drawn), the EC50 in data set [17] amounted to 76 nM. Turning to `O=C1CC2(CCCC2)C(=O)N1OCc1ccccc1`, the PI in the data set filed under Mus musculus [20] is recorded as >4.5. Turning to `O=C(NCc1ccccc1F)c1ccccn1` [PICOLINIC ACID FLUOROBENZYLAMIDE], the ED50 with Rattus norvegicus [21] was > 50 mg/kg; in the data set with Rattus norvegicus [22], 14.7 mg/kg. For the same compound, in the data set on Rattus norvegicus [23], the “Ratio TD50/ED50” value is given as <3.4. `Cc1cc(NC2=CC(=O)C(C(=O)OC(C)(C)C)C(C)C2)no1` (stereo not drawn): the “Ratio TD50/ED50” value with Rattus norvegicus [1] is recorded as >17.8. For the same compound, the TD50 in [2] is > 500 mg/kg. In the case of `CC(=O)NC(C)C(=O)NCc1ccccc1` (stereo not drawn), the figures for the “Ratio TD50/ED50” value with Rattus norvegicus [1] and in the data set on Mus musculus [4] were >20 and 5.9, respectively. Besides, the values for the ED50 with Rattus norvegicus [24] and in the data set with Mus musculus [7] were 48 mg/kg and 77 mg/kg, respectively. With `CCOc1ccc2c(c1)c(C[C@H](C)N)c1n2CCC1`, the Activity in data set [18] turned out to be 87%. Besides, the half-maximal effective concentration (EC50) in data set [25] was 4 nM.
